Results on one compound are retold here after publication PMC12516379, “Rotamer-Controlled Self-Immolative Linkers Enable Tunable Release of Neurosteroid Oxime Prodrugs” (ACS Medicinal Chemistry Letters, 2025).

SMILES strings stand for the structures. Where two headings read alike, the source gives them in different places.

This data set is described as follows: PBS stability assay at 37 °C via LC-MS/MS. It is filed as physicochemical. To be noted: 37 °C; for half-life at 3 µM: pH 7.03, PBS.

Turning to `CNCCN(C)C(=O)O/N=C(\C)[C@H]1CC[C@H]2[C@@H]3CCC4=CC(=O)CC[C@]4(C)[C@H]3CC[C@]12C` [20a], where the note is “PBS, 2 h”, the “PBS, 37 °C %rem. at 2h (Table S23)” value turned out to be 77%. The half-life at 3 µM by setting is: (phosphate-buffered saline (DPBS), 3 µM, LC-MS/MS, read-out: t1/2 in PBS at 37 °C (Tables S14-S17) (converted)) 8.07 h; (phosphate-buffered saline (DPBS), LC-MS/MS, read-out: Half-life (t½) PBS 37°C (converted)) 8.07 h; (phosphate-buffered saline (DPBS), read-out: PBS, 37 °C t½ (Table S23) (converted)) 8.07 h; (phosphate-buffered saline (DPBS), read-out: t1/2 (h) PBS, 37 °C (Tables S25, S26) (converted)) 8.07 h. Further, the fraction remaining at 2 h, 3 µM (phosphate-buffered saline (DPBS), pH 7.03, PBS, 2 h, read-out: % Remaining @ 2h, PBS, 37 °C (Tables S25, S26)) was 77%.
